Values quoted from earlier work as cited in patent US7795231B2, “Concentrated aqueous azalide formulations” (Insite Vision Incorporated, priority 2007, dated 2010).
Structures can show the parent of a compound that is named as a salt.

CC[C@H]1OC(=O)[C@H](C)[C@@H](O[C@H]2C[C@@](C)(OC)[C@@H](O)[C@H](C)O2)[C@H](C)[C@@H](O[C@@H]2O[C@H](C)C[C@H](N(C)C)[C@H]2O)[C@](C)(O)C[C@@H](C)CN(C)[C@H](C)[C@@H](O)[C@]1(C)O [azithromycin dihydrochloride]
water solubility (in words): good water solubility
